Assay results taken from PubChem BioAssay (NCI).
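GI50 = concentration required for 50% inhibition of growth. Definition used: TGI = concentration required for complete inhibition of growth.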

What was measured:
Assay in all cases: growth of human tumour cells (NCI), 384-well format
786-0 renal = system: 786-0 renal
A498 renal = system: A498 renal
A549 NSCLC = system: A549 NSCLC
ACHN renal = system: ACHN renal
BT-549 breast = system: BT-549 breast
CAKI-1 renal = system: CAKI-1 renal
CCRF-CEM leukemia = system: CCRF-CEM leukemia
COLO 205 colon = system: COLO 205 colon
EKVX NSCLC = system: EKVX NSCLC
HCC-2998 colon = system: HCC-2998 colon
HCT-116 colon = system: HCT-116 colon
HCT-15 colon = system: HCT-15 colon
HL-60(TB) leukemia = system: HL-60(TB) leukemia
HOP-92 NSCLC = system: HOP-92 NSCLC
HS 578T breast = system: HS 578T breast
HT29 colon = system: HT29 colon
IGROV1 ovarian = system: IGROV1 ovarian
K-562 leukemia = system: K-562 leukemia
KM12 colon = system: KM12 colon
LOX IMVI melanoma = system: LOX IMVI melanoma
M14 melanoma = system: M14 melanoma
MALME-3M melanoma = system: MALME-3M melanoma
MCF7 breast = system: MCF7 breast
MDA-MB-231 breast = system: MDA-MB-231 breast
MDA-MB-435 melanoma = system: MDA-MB-435 melanoma
MDA-MB-468 breast = system: MDA-MB-468 breast
MOLT-4 leukemia = system: MOLT-4 leukemia
NCI-H226 lung = system: NCI-H226 lung
NCI-H23 lung = system: NCI-H23 lung
NCI-H322M lung = system: NCI-H322M lung
NCI-H460 NSCLC = system: NCI-H460 NSCLC
NCI-H522 lung = system: NCI-H522 lung
NCI/ADR-RES ovarian = system: NCI/ADR-RES ovarian
OVCAR-4 ovarian = system: OVCAR-4 ovarian
OVCAR-5 ovarian = system: OVCAR-5 ovarian
PC-3 prostate = system: PC-3 prostate
RPMI-8226 leukemia = system: RPMI-8226 leukemia
RXF 393 renal = system: RXF 393 renal
SF-268 CNS = system: SF-268 CNS
SF-295 CNS = system: SF-295 CNS
SF-539 CNS = system: SF-539 CNS
SK-MEL-2 melanoma = system: SK-MEL-2 melanoma
SK-MEL-5 melanoma = system: SK-MEL-5 melanoma
SK-OV-3 ovarian = system: SK-OV-3 ovarian
SN12C renal = system: SN12C renal
SNB-19 CNS = system: SNB-19 CNS
SNB-75 CNS = system: SNB-75 CNS
SR leukemia = system: SR leukemia
T-47D breast = system: T-47D breast
U251 glioblastoma = system: U251 glioblastoma
UACC-257 melanoma = system: UACC-257 melanoma
UACC-62 melanoma = system: UACC-62 melanoma
UO-31 renal = system: UO-31 renal
DU-145 prostate = system: DU-145 prostate
HOP-62 NSCLC = system: HOP-62 NSCLC
OVCAR-3 ovarian = system: OVCAR-3 ovarian
OVCAR-8 ovarian = system: OVCAR-8 ovarian
SK-MEL-28 melanoma = system: SK-MEL-28 melanoma
SW-620 colon = system: SW-620 colon
TK-10 renal = system: TK-10 renal

## CC(C)c1cc(-c2n[nH]c(=O)n2-c2ccc3c(ccn3C)c2)c(O)cc1O
786-0 renal
  GI50: < 10 nM
  TGI: 78.1 nM
A498 renal
  GI50: 26.1 nM
  TGI: 17200 nM
A549 NSCLC
  GI50: < 10 nM
  TGI: 14000 nM
ACHN renal
  GI50: < 10 nM
  TGI: > 100000 nM
BT-549 breast
  GI50: < 10 nM
  TGI: < 10 nM
CAKI-1 renal
  GI50: 19.5 nM
  TGI: 18000 nM
CCRF-CEM leukemia
  GI50: < 10 nM
  TGI: 15.2 nM
COLO 205 colon
  GI50: < 10 nM
  TGI: 56.7 nM
EKVX NSCLC
  GI50: 11.8 nM
  TGI: 76.3 nM
HCC-2998 colon
  GI50: < 10 nM
  TGI: 15.6 nM
HCT-116 colon
  GI50: 18.8 nM
  TGI: 10500 nM
HCT-15 colon
  GI50: < 10 nM
  TGI: 13100 nM
HL-60(TB) leukemia
  GI50: < 10 nM
  TGI: < 10 nM
HOP-92 NSCLC
  GI50: 11.8 nM
  TGI: 36.3 nM
HS 578T breast
  GI50: < 10 nM
  TGI: 61.5 nM
HT29 colon
  GI50: 36.4 nM
  TGI: 13400 nM
IGROV1 ovarian
  GI50: < 10 nM
  TGI: 21.4 nM
K-562 leukemia
  GI50: < 10 nM
  TGI: 27 nM
KM12 colon
  GI50: < 10 nM
  TGI: 84.9 nM
LOX IMVI melanoma
  GI50: < 10 nM
  TGI: 20.7 nM
M14 melanoma
  GI50: < 10 nM
  TGI: 2690 nM
MALME-3M melanoma
  GI50: < 10 nM
  TGI: < 10 nM
MCF7 breast
  GI50: < 10 nM
  TGI: 16400 nM
MDA-MB-231 breast
  GI50: 19.1 nM
  TGI: 72 nM
MDA-MB-435 melanoma
  GI50: < 10 nM
  TGI: 22600 nM
MDA-MB-468 breast
  GI50: < 10 nM
  TGI: < 10 nM
MOLT-4 leukemia
  GI50: < 10 nM
  TGI: < 10 nM
NCI-H226 lung
  GI50: 46.5 nM
  TGI: 603 nM
NCI-H23 lung
  GI50: < 10 nM
  TGI: 23.8 nM
NCI-H322M lung
  GI50: 19.9 nM
  TGI: 16200 nM
NCI-H460 NSCLC
  GI50: < 10 nM
  TGI: < 10 nM
NCI-H522 lung
  GI50: < 10 nM
  TGI: < 10 nM
NCI/ADR-RES ovarian
  GI50: 22.6 nM
  TGI: 69.1 nM
OVCAR-4 ovarian
  GI50: < 10 nM
  TGI: > 100000 nM
OVCAR-5 ovarian
  GI50: 21.8 nM
  TGI: 13500 nM
PC-3 prostate
  GI50: 10.2 nM
  TGI: 52.7 nM
RPMI-8226 leukemia
  GI50: < 10 nM
  TGI: 12.9 nM
RXF 393 renal
  GI50: < 10 nM
  TGI: 11500 nM
SF-268 CNS
  GI50: 15.4 nM
  TGI: 28400 nM
SF-295 CNS
  GI50: 17 nM
  TGI: 46.6 nM
SF-539 CNS
  GI50: < 10 nM
  TGI: < 10 nM
SK-MEL-2 melanoma
  GI50: < 10 nM
  TGI: < 10 nM
SK-MEL-5 melanoma
  GI50: < 10 nM
  TGI: 3690 nM
SK-OV-3 ovarian
  GI50: 12.3 nM
  TGI: 2440 nM
SN12C renal
  GI50: < 10 nM
  TGI: 36.7 nM
SNB-19 CNS
  GI50: 13.4 nM
  TGI: 74.5 nM
SNB-75 CNS
  GI50: < 10 nM
  TGI: 46 nM
SR leukemia
  GI50: < 10 nM
  TGI: < 10 nM
T-47D breast
  GI50: 28.2 nM
  TGI: 1570 nM
U251 glioblastoma
  GI50: < 10 nM
  TGI: 24.3 nM
UACC-257 melanoma
  GI50: 42.4 nM
  TGI: 22600 nM
UACC-62 melanoma
  GI50: < 10 nM
  TGI: 31.6 nM
UO-31 renal
  GI50: < 10 nM
  TGI: 11800 nM

## CC1(C)CC(=O)c2c(C(F)(F)F)nn(-c3ccc(C(N)=O)c(NC4CCC(OC(=O)CN)CC4)c3)c2C1 (stereo unspecified)
786-0 renal
  GI50: 43.9 nM
  TGI: 11700 nM
A498 renal
  GI50: 67.2 nM
  TGI: 15100 nM
A549 NSCLC
  GI50: 29 nM
  TGI: 11000 nM
ACHN renal
  GI50: 62 nM
  TGI: 18100 nM
CAKI-1 renal
  GI50: 67.9 nM
  TGI: 19600 nM
CCRF-CEM leukemia
  GI50: 18.9 nM
  TGI: 53.3 nM
COLO 205 colon
  GI50: 13.7 nM
  TGI: 66.7 nM
DU-145 prostate
  GI50: 48.2 nM
  TGI: 975 nM
EKVX NSCLC
  GI50: 83.1 nM
  TGI: 15600 nM
HCC-2998 colon
  GI50: 21.4 nM
  TGI: 87.4 nM
HCT-116 colon
  GI50: 41.4 nM
  TGI: 13000 nM
HCT-15 colon
  GI50: 88.8 nM
  TGI: 14200 nM
HL-60(TB) leukemia
  GI50: 19.2 nM
  TGI: 35.4 nM
HOP-62 NSCLC
  GI50: 41 nM
  TGI: 20000 nM
HOP-92 NSCLC
  GI50: 28.2 nM
  TGI: 89.5 nM
HS 578T breast
  GI50: 32.1 nM
  TGI: 222 nM
HT29 colon
  GI50: 24.6 nM
  TGI: 11500 nM
IGROV1 ovarian
  GI50: 18.9 nM
  TGI: 74.3 nM
K-562 leukemia
  GI50: 27.4 nM
  TGI: 10200 nM
KM12 colon
  GI50: 26.6 nM
  TGI: 827 nM
LOX IMVI melanoma
  GI50: 17.4 nM
  TGI: 33.6 nM
M14 melanoma
  GI50: 31.4 nM
  TGI: 12000 nM
MCF7 breast
  GI50: 25.4 nM
  TGI: 843 nM
MDA-MB-231 breast
  GI50: 22.7 nM
  TGI: 71.7 nM
MDA-MB-435 melanoma
  GI50: 67.4 nM
  TGI: 38100 nM
MDA-MB-468 breast
  GI50: 21 nM
  TGI: 47.6 nM
MOLT-4 leukemia
  GI50: 11.9 nM
  TGI: 25.3 nM
NCI-H226 lung
  GI50: 30.3 nM
  TGI: 229 nM
NCI-H23 lung
  GI50: 21.2 nM
  TGI: 68.3 nM
NCI-H322M lung
  GI50: 44.2 nM
  TGI: 20800 nM
NCI-H460 NSCLC
  GI50: 22.1 nM
  TGI: 57.3 nM
NCI-H522 lung
  GI50: 21.2 nM
  TGI: 49.3 nM
NCI/ADR-RES ovarian
  GI50: 2350 nM
  TGI: 6770 nM
OVCAR-3 ovarian
  GI50: 25.3 nM
  TGI: 88.5 nM
OVCAR-4 ovarian
  GI50: 17100 nM
  TGI: > 100000 nM
OVCAR-5 ovarian
  GI50: 53.6 nM
  TGI: 30200 nM
OVCAR-8 ovarian
  GI50: 21.9 nM
  TGI: 48.2 nM
PC-3 prostate
  GI50: 33.6 nM
  TGI: 135 nM
RPMI-8226 leukemia
  GI50: 51.2 nM
  TGI: 241 nM
SF-268 CNS
  GI50: 12.2 nM
  TGI: 36.5 nM
SF-295 CNS
  GI50: 37.3 nM
  TGI: 140 nM
SF-539 CNS
  GI50: 18.6 nM
  TGI: 43.1 nM
SK-MEL-28 melanoma
  GI50: 46.5 nM
  TGI: 19300 nM
SK-MEL-5 melanoma
  GI50: 39.6 nM
  TGI: 14000 nM
SK-OV-3 ovarian
  GI50: 41.5 nM
  TGI: 29500 nM
SN12C renal
  GI50: 29.6 nM
  TGI: 98.8 nM
SNB-19 CNS
  GI50: 47.5 nM
  TGI: 30000 nM
SNB-75 CNS
  GI50: 112 nM
  TGI: 506 nM
SW-620 colon
  GI50: 25.8 nM
  TGI: 79.4 nM
T-47D breast
  GI50: 19.5 nM
  TGI: 65 nM
TK-10 renal
  GI50: 51 nM
  TGI: 5310 nM
U251 glioblastoma
  GI50: 30.4 nM
  TGI: 95.2 nM
UACC-257 melanoma
  GI50: 52.8 nM
  TGI: 21200 nM
UACC-62 melanoma
  GI50: 29.7 nM
  TGI: 129 nM
UO-31 renal
  GI50: 119 nM
  TGI: 16300 nM
